Results on 2 molecules are retold here after ChEMBL document CHEMBL5365394, “Design, synthesis and biological evaluation of novel spiro-quinazolinone derivatives as chitin synthase inhibitors and antifungal agents” (Eur J Med Chem, 2023).

The nature of test [1]: Inhibition of Saccharomyces cerevisiae CGMCC2.145 chitin synthase […] by TMB based microplate reader analysis.
Test [2] has as its system Aspergillus flavus. Nature of the test: Antifungal activity against Fluconazole-resistant Aspergillus flavus ATCC 16870R assessed as fungal growth inhibition. It counts as functional.
Test [3] has as its system Candida albicans. Nature of the test: Synergistic antifungal activity against Candida albicans ATCC 76615 assessed as polyoxin B MIC incubated for 24 hrs by checkerboard broth microdilution method. In kind it is functional. In general terms: Dilution methods test growth across graded concentrations, often in twofold steps.
The subject of test [4] is Aspergillus flavus. Nature of the test: Synergistic antifungal activity against Aspergillus flavus ATCC 16870 assessed as polyoxin B MIC incubated for 24 hrs by checkerboard broth microdilution method. In kind it is functional.
For test [5], the system named is Cryptococcus neoformans. Nature of the test: Synergistic antifungal activity against Cryptococcus neoformans ATCC 32719 assessed as polyoxin B MIC incubated for 24 hrs in by checkerboard broth microdilution method. In kind it is functional.
The subject of test [6] is Aspergillus fumigatus. The experiment in a line: Additive antifungal activity against Aspergillus fumigatus GIMCC 3.19 assessed as fractional inhibitory concentration index incubated for 24 hrs in presence of fluconazole by checkerboard broth microdilution method. In kind it is functional.
The subject of test [7] is Candida albicans. The experiment in a line: Synergistic antifungal activity against Candida albicans ATCC 76615 assessed as fluconazole MIC incubated for 24 hrs in by checkerboard broth microdilution method. In kind it is functional.
The test system of test [8] is Aspergillus flavus. Nature of the test: Additive antifungal activity against Aspergillus flavus ATCC 16870 assessed as fractional inhibitory concentration index incubated for 24 hrs in presence of fluconazole by checkerboard broth microdilution method. In kind it is functional.
The test system of test [9] is Candida albicans. Nature of the test: Antifungal activity against Candida albicans ATCC 76615 assessed as inhibition of cell wall synthesis incubated for 24 hrs in absence of sorbitol. In kind it is functional.
Test [10] relates to Aspergillus flavus. Nature of the test: Antifungal activity against Aspergillus flavus ATCC 16870 assessed as inhibition of cell wall synthesis incubated for 24 hrs in absence of sorbitol. In kind it is functional.
The subject of test [11] is Aspergillus flavus. Nature of the test: Antifungal activity against Aspergillus flavus ATCC 16870 assessed as fungal growth inhibition incubated for 24 hrs by two-fold serial dilution method. It counts as functional.
Test [12] has as its system Aspergillus flavus. The experiment in a line: Antifungal activity against Aspergillus flavus ATCC 16870 assessed as inhibition of cell wall synthesis incubated for 24 hrs in presence of sorbitol. In kind it is functional.
The subject of test [13] is Aspergillus fumigatus. Nature of the test: Synergistic antifungal activity against Aspergillus fumigatus GIMCC 3.19 assessed as polyoxin B MIC incubated for 24 hrs by checkerboard broth microdilution method. It counts as functional.
Test [14] relates to Aspergillus fumigatus. The experiment in a line: Antifungal activity against Fluconazole-resistant Aspergillus fumigatus GIMCC 3.19R assessed as fungal growth inhibition. In kind it is functional.
Test [15] has as its system Aspergillus fumigatus. Nature of the test: Synergistic antifungal activity against Aspergillus fumigatus GIMCC 3.19 assessed as fractional inhibitory concentration index incubated for 24 hrs in presence of polyoxin B by checkerboard broth microdilution method. In kind it is functional.
In test [16] the test system is Candida albicans. Nature of the test: Antifungal activity against Candida albicans ATCC 76615 assessed as fungal growth inhibition incubated for 24 hrs by two-fold serial dilution method. In kind it is functional.
Test [17] relates to Candida albicans. The experiment in a line: Antifungal activity against Micafungin-resistant Candida albicans ATCC 76615R assessed as fungal growth inhibition. It counts as functional.
In test [18] the test system is Candida tropicalis. The experiment in a line: Inhibition of Candida tropicalis ATCC 750 chitin synthase using […] as substrate at 300 ug/ml incubated for 1 hr by absorbance based assay relative to control. Particulars: dose 300.0 µg/ml.
Test [19] has as its system Candida albicans. The experiment in a line: Additive antifungal activity against Candida albicans ATCC 76615 assessed as fractional inhibitory concentration index incubated for 24 hrs in presence of polyoxin B by checkerboard broth microdilution method. It counts as functional.
Test [20] deals with Aspergillus fumigatus. Nature of the test: Synergistic antifungal activity against Aspergillus fumigatus GIMCC 3.19 assessed as fluconazole MIC incubated for 24 hrs in by checkerboard broth microdilution method. It counts as functional.
The test system of test [21] is Candida albicans. Nature of the test: Antifungal activity against Candida albicans ATCC 76615 assessed as inhibition of cell wall synthesis incubated for 24 hrs in presence of sorbitol. In kind it is functional.
Test [22] has as its system Cryptococcus neoformans. Nature of the test: Antifungal activity against Fluconazole-resistant Cryptococcus neoformans ATCC 32719R assessed as fungal growth inhibition. In kind it is functional.
Test [23] concerns Aspergillus fumigatus. Nature of the test: Antifungal activity against Aspergillus fumigatus GIMCC 3.19 assessed as inhibition of cell wall synthesis incubated for 24 hrs in absence of sorbitol. It counts as functional.
In test [24] the test system is Cryptococcus neoformans. The experiment in a line: Synergistic antifungal activity against Cryptococcus neoformans ATCC 32719 assessed as fluconazole MIC incubated for 24 hrs in by checkerboard broth microdilution method. It counts as functional.
In test [25] the test system is Aspergillus fumigatus. Nature of the test: Antifungal activity against Aspergillus fumigatus GIMCC 3.19 assessed as inhibition of cell wall synthesis incubated for 24 hrs in presence of sorbitol. In kind it is functional.
In test [26] the test system is Cryptococcus neoformans. The experiment in a line: Synergistic antifungal activity against Cryptococcus neoformans ATCC 32719 assessed as fractional inhibitory concentration index incubated for 24 hrs in presence of fluconazole by checkerboard broth microdilution method. In kind it is functional.
The test system of test [27] is Cryptococcus neoformans. Nature of the test: Antifungal activity against Cryptococcus neoformans ATCC 32719 assessed as inhibition of cell wall synthesis incubated for 24 hrs in presence of sorbitol. In kind it is functional.
Test [28] in a line: Inhibition of Candida tropicalis ATCC 750 chitin synthase using UDP-GlcNAc as substrate incubated for 1 hr by absorbance based assay.
Test [29] concerns Cryptococcus neoformans. Nature of the test: Synergistic antifungal activity against Cryptococcus neoformans ATCC 32719 assessed as fractional inhibitory concentration index incubated for 24 hrs in presence of polyoxin B by checkerboard broth microdilution method. It counts as functional.
The subject of test [30] is Cryptococcus neoformans. Nature of the test: Antifungal activity against Cryptococcus neoformans ATCC 32719 assessed as fungal growth inhibition incubated for 24 hrs by two-fold serial dilution method. In kind it is functional.
Test [31] deals with Candida albicans. The experiment in a line: Additive antifungal activity against Candida albicans ATCC 76615 assessed as fractional inhibitory concentration index incubated for 24 hrs in presence of fluconazole by checkerboard broth microdilution method. It counts as functional.
The test system of test [32] is Cryptococcus neoformans. The experiment in a line: Antifungal activity against Cryptococcus neoformans ATCC 32719 assessed as inhibition of cell wall synthesis incubated for 24 hrs in absence of sorbitol. It counts as functional.
Test [33] deals with Aspergillus fumigatus. Nature of the test: Antifungal activity against Aspergillus fumigatus GIMCC 3.19 assessed as fungal growth inhibition incubated for 24 hrs by two-fold serial dilution method. In kind it is functional.
The test system of test [34] is Aspergillus flavus. Nature of the test: Additive antifungal activity against Aspergillus flavus ATCC 16870 assessed as fractional inhibitory concentration index incubated for 24 hrs in presence of polyoxin B by checkerboard broth microdilution method. It counts as functional.
Test [35] concerns Aspergillus flavus. The experiment in a line: Synergistic antifungal activity against Aspergillus flavus ATCC 16870 assessed as fluconazole MIC incubated for 24 hrs in by checkerboard broth microdilution method. In kind it is functional.
The test system of test [36] is Candida albicans. The experiment in a line: Antifungal activity against Fluconazole-resistant Candida albicans ATCC 76615R assessed as fungal growth inhibition. It counts as functional.

Each structure is given as a SMILES string. Converted amounts (≈) assume the structure as drawn.

On to `O=C(Nc1cccc(C(F)(F)F)c1)C1CCN(CC(=O)N2CCC3(CCNC3=O)CC2)CC1`, for which half-maximal inhibition in test [1] (IC50) required 100 µM.
Regarding `O=C(/C=C/C(=O)Nc1ccc2c(c1)C(=O)NC1(CCSC1)N2)Nc1ccc(Br)cc1` (stereo unspecified), the MIC (in general, the lowest concentration found to suppress growth) in [2] is 32 µg/mL (≈ 65.7 µM); in [3], 2 µg/mL; in [4], 2 µg/mL; in [5] it was 4 µg/mL; in test [7], 1 µg/mL; in [9], 16 µg/mL (≈ 32.8 µM). Further, the MIC was 32 µg/mL (≈ 65.7 µM) in [10]; 16 µg/mL (≈ 32.8 µM) in test [11]; 256 µg/mL in [12]; 8 µg/mL in test [13]; 16 µg/mL (≈ 32.8 µM) in [14]; 16 µg/mL (≈ 32.8 µM) in [16]. Moreover, the MIC stood at 16 µg/mL (≈ 32.8 µM) in test [17]; 1 µg/mL in test [20]; 128 µg/mL in [21]; 8 µg/mL (≈ 16.4 µM) in test [22]; 16 µg/mL (≈ 32.8 µM) in test [23]; 2 µg/mL in test [24]. Besides, the MIC was determined as 256 µg/mL in test [25]; 128 µg/mL in test [27]; 2 µg/mL (≈ 4.1 µM) in test [30]; 8 µg/mL (≈ 16.4 µM) in test [32]; 8 µg/mL (≈ 16.4 µM) in [33]; 4 µg/mL in test [35]. Moreover, the MIC in test [36] was 32 µg/mL (≈ 65.7 µM). Besides, the “fractional inhibitory concentration index (FICI)” value turned out to be 1.125 in test [6]; 1.5 in test [8]; 1 in test [15]; 1.25 in [19]; 0.75 in test [26]; 0.75 in test [29]. For the same molecule, the “fractional inhibitory concentration index (FICI)” value was 1.5 in test [31] and 1.125 in [34]. Besides, the inhibition (commonly the percentage by which the read-out fell short of the control) in test [18] amounted to 75.3%. For the same molecule, the concentration for half-maximal inhibition (IC50) (usually the concentration needed to halve the response being measured) in test [28] worked out at 117 µM.
